From PubChem BioAssay AID743417 (Broad Institute, 2014) come the findings set out here.

The structures appear in SMILES notation. Inconclusive results are not listed.

The test system of this test is Clone20 osteoblast Shn3 3'UTR firefly luciferase, 24 h. Description: Schnurri-3 3'UTR-luciferase signal suppressors – cell-based, Clone20 osteoblasts, luminescence, dry powder, set 2, dose response (AID 743417).
The term AC50 denotes the concentration at which the activity in the assay is half-maximal. Regarding `COc1ccc(C(NC(C)=O)c2cc(Cl)c3cccnc3c2O)cc1` (stereo not given), the AC50 is 1.61 µM.

Consider `O=C(Nc1ccc(F)cc1)Nc1cc(OCC(F)(F)F)cc(OCC(F)(F)F)c1`, for which the AC50 is 2.46 µM.

As to `CCOC(=O)N1CCN(c2ccc(S(=O)(=O)N(Cc3ccccc3)Cc3ccccc3)cn2)CC1`, the AC50 is 2.59 µM.

For the compound `O=C(CSc1nnc(-c2cccnc2)s1)Nc1ccnc2ccccc12`, the AC50 is 0.661 µM.

As to `OC1(c2cccc(C(F)(F)F)c2)CCN(c2ncnc3c2[nH]c2ccc(F)cc23)CC1`, the AC50 is 1.87 µM.

On to `O=C1CC(Sc2nnc(-c3ccccc3O)o2)C(=O)N1c1ccccc1` (stereo not given), for which the AC50 was 12.9 µM.

As for `Cc1ccc(NC(=O)C2CCC(C(C)(C)C)CC2)cc1S(=O)(=O)N1CCOCC1` (stereo not given), the AC50 was 12.1 µM.

In the case of `CCOC(=O)c1cnc(-n2nc(C)cc2C)nc1NC1CCCCC1`, the concentration at half-maximal activity (AC50) was 3.01 µM.

As to `CCOc1ccc2nc3cc(NCc4ccc(OC)cc4)ccc3c(N)c2c1`, the AC50 is 6.69 µM.

Regarding `COc1ccccc1OCC(O)Cn1c(=N)n(Cc2ccccc2)c2ccccc21` (stereo not given), the AC50 was 4.01 µM.

Turning to `COc1ccc(CNC(=O)C(c2ccc(C)cc2)N(Cc2cccs2)C(=O)c2ccc3c(c2)OCCO3)cc1` (stereo not given), the AC50 was 8.1 µM.

With `C[C@H]1CCC/C=C/[C@@H]2C[C@H](O)C[C@H]2[C@@H](O)/C=C/C(=O)O1`, the AC50 was 2.17 µM.

As to `CCOC(=O)c1c(NC(=O)c2nn(CC)cc2Br)sc(C)c1C`, the AC50 is 11 µM.

In the case of `CCOC(=O)Cn1c(S(=O)(=O)Cc2ccccc2Cl)nc(-c2ccccc2)c1-c1ccccc1`, the AC50 was 9.29 µM.

Consider `Cc1cc2nc(C)n(CCCNC(=O)Nc3cccc4ccccc34)c2cc1C`, for which the AC50 is 3.19 µM.

For `Oc1c(C(Nc2ccccn2)c2ccccn2)ccc2cccnc12` (stereo not given), the AC50 is 4.36 µM.

As to `COc1ccc(-c2nc(-c3ccc(NC(=O)c4ccncc4)cc3)no2)cc1OC`, the AC50 is 2.36 µM.

As for `C=C(CN(C)C)C(=O)c1ccc(C)cc1C`, the AC50 is 0.77 µM.

For `Cc1ccc(NC(=O)c2cc(S(=O)(=O)NCCC3=CCCCC3)ccc2F)cc1F`, the AC50 is 4.13 µM.

As for `CC1CC(C)(C)CC2(C1)NC(=O)N(CC(=O)N1CCN(Cc3ccc(C#N)cc3)CC1)C2=O` (stereo not given), the AC50 was 1.47 µM.

On to `CCc1ccc(CNCc2ccc(OCC(O)CN(C)Cc3ccccc3)cc2)nc1` (stereo not given), for which the AC50 was 4.43 µM.

Regarding `C=C(C)C(=O)O[C@H]1C/C(C)=C\C(=O)/C=C(\C)[C@H](O)[C@@H]2OC(=O)C(=C)[C@@H]21`, the AC50 is 3.02 µM.

Turning to `O=C(NCc1cccnc1)/C(=C/c1ccc(-c2ccc(Cl)cc2)o1)S(=O)(=O)c1ccccc1`, the AC50 is 5.35 µM.

`O=C(Nc1nc(-c2ccccn2)cs1)c1ccccc1-n1cnnn1`: the AC50 is 1.71 µM.

For `Cc1ccc(S(=O)(=O)CCC(=O)OCC(=O)Nc2cc(S(=O)(=O)N3CCOCC3)ccc2C)cc1`, the AC50 is 17.8 µM.

Regarding `O=C1S/C(=C\c2ccc(N3CCOCC3)o2)C(=O)N1Cc1c(F)cccc1Cl`, the AC50 is 6.72 µM.

With `CCN(CC)CCNC(=O)CSc1c2c(nc3cc(Cl)ccc13)CCCC2`, the AC50 is 14.9 µM.

As for `Cc1ccc(NC(=O)CN(C)CC(=O)Nc2cccc(F)c2)cc1[N+](=O)[O-]`, the AC50 is 0.57 µM.

`Cc1ccc(-c2nc(NC(=O)c3nn(C)cc3[N+](=O)[O-])sc2C)cc1`: the AC50 was 1.3 µM.

Regarding `CCC(=O)OCCNc1cc(Sc2nc3ccccc3[nH]2)c2nonc2c1[N+](=O)[O-]`, the AC50 was 1.09 µM.

As for `COc1cc(NC(=O)Cn2ncc(Cl)c(Cl)c2=O)c(C)cc1[N+](=O)[O-]`, the AC50 is 3.44 µM.

`CC(Nc1ncnc2ccccc12)c1ccccc1` (stereo not given): the AC50 was 0.355 µM.

In the case of `Nc1nc(Cl)cc(N2CCC(c3cc(-c4ccc(Cl)cc4Cl)n[nH]3)CC2)n1`, the AC50 was 4.94 µM.

For `C=C1C(=O)[C@]23C[C@H]1CCC2[C@]1(C)CCC[C@@](C)(C(=O)O)C1C[C@@H]3O` (stereo not given in full), the AC50 is 1.2 µM.

For the compound `CC[C@H]1CN2CCc3cc(OC)c(OC)cc3[C@@H]2C[C@@H]1C[C@H]1NCCc2cc(OC)c(OC)cc21`, the AC50 was < 0.26 µM.

As for `COc1ccc(NS(=O)(=O)c2ccc(OC)c(N(C)S(=O)(=O)c3ccc(Cl)cc3)c2)cc1`, the AC50 is 2.92 µM.

`CCCc1nc([N+](=O)[O-])c(S(=O)(=O)c2ccccc2)n1CC(C)C`: the AC50 is 7.39 µM.

As to `Cn1nc(CC(=O)Nc2ccc3c(c2)OCCO3)c2ccccc2c1=O`, the AC50 was 0.899 µM.

For the compound `COc1ccc(-n2nnnc2-c2cnc(N3CCCC3)nc2C(F)(F)F)cc1`, the AC50 is 4.75 µM.

Turning to `CCCC(=O)NC(c1ccccc1Cl)c1ccc2cccnc2c1O` (stereo not given), the AC50 is 1.21 µM.

Consider `c1ccc(CN2CCN(c3ncnc4c3[nH]c3ccccc34)CC2)cc1`, for which the AC50 was 2.06 µM.

With `O=C(OC12CC3CC(CC(C3)C1)C2)c1ccc(NCc2cc(O)ccc2O)cc1`, the AC50 was 2.33 µM.

`CC1=NN(c2nc3ccccc3[nH]2)C(=O)C1Cc1ccccc1` (stereo not given): the AC50 was 4.11 µM.

Turning to `CCOc1ccc(-c2nnc(N3CCCCC3)c3ccccc23)cc1`, the AC50 is 14.9 µM.

As to `Cn1nc(C(C)(C)C)cc1C(=O)NCc1ccc2c(c1)OCO2`, the AC50 was 1.17 µM.

Turning to `COc1ccccc1C(=O)Nc1nc(-c2ccc(S(=O)(=O)N3CCOCC3)cc2)cs1`, the AC50 is 1.21 µM.

Regarding `C=CCNc1nc(-c2ccccn2)nnc1-c1ccccc1`, the AC50 was 3.17 µM.

Consider `O=C(NNC(=O)c1cccc(S(=O)(=O)N2CCc3ccccc32)c1)c1ccccc1`, for which the concentration at half-maximal activity (AC50) is 1.52 µM.

With `Cc1ccc(C)c(N2CCN(C(=O)CCCCCn3c(=S)[nH]c4ccc(N5CCOCC5)cc4c3=O)CC2)c1`, the AC50 was 1.99 µM.

Regarding `CNC[C@H](CC1CCCCC1)NC[C@H](Cc1ccccc1)NCCC12CC3CC(CC(C3)C1)C2`, the AC50 is 5.51 µM.

For the compound `O=C(Nc1ccc2oc(-c3ccncc3)nc2c1)c1ccc([N+](=O)[O-])o1`, the concentration at half-maximal activity (AC50) is 18.6 µM.

Turning to `CN(C)C1=NC[C@H](Cc2ccccc2)N1CCCCc1ccccc1`, the AC50 was 8.01 µM.

With `COc1cccc(CN(C)C(=O)c2ccc(OCC(=O)Nc3cccc(C(F)(F)F)c3)c(OC)c2)c1`, the AC50 is 4.93 µM.

For `CCn1c(C)nc2cc(-c3nnc(-c4c(-c5ccccc5)noc4C)o3)ccc21`, the AC50 is 5.82 µM.

Consider `CC(O)(c1ccncc1)c1nc(-c2cccc(C(F)(F)F)c2)cs1` (stereo not given), for which the AC50 is 5.34 µM.

As to `COc1ccccc1NS(=O)(=O)c1cc(NC(=O)c2ccc(Cl)nc2)ccc1Cl`, the AC50 was 3.12 µM.

As to `Cc1ccc(-n2c(Cl)c(Cl)nc(Cl)c2=O)cc1`, the AC50 was 1.77 µM.

Turning to `O=C(/C=C/c1ccc(O)c(O)c1)OCCc1ccccc1`, the AC50 is 0.877 µM.

For the compound `COC(=O)c1c(-c2cccc3ccccc23)csc1NC(=O)Cc1ccc(OC)c(OC)c1`, the AC50 is 5.43 µM.

Take `CCCOc1ccc(C(=O)C(CN2CCCC2)c2ccccc2)cc1` (stereo not given): the AC50 was 4.84 µM.

Turning to `COc1ccc(CNc2ncnc3sccc23)cc1OC`, the AC50 is 2.34 µM.

On to `CC(C)NCC(O)COc1cccc2ccccc12` (stereo not given), for which the AC50 was 23.6 µM.

Consider `C=C1CC2(OC1=O)c1ccccc1CCc1ccccc12`, for which the AC50 was 1.28 µM.

Regarding `COc1c(CC=C(C)C)cc(C2CC(=O)c3c(O)cc(O)cc3O2)cc1CC=C(C)C` (stereo not given), the AC50 was 5.42 µM.

For the compound `COc1ccc(OC)c(NC(=O)COC(=O)c2c3c(nc4ccccc24)CCCC3)c1`, the AC50 is 8.67 µM.

Regarding `O=C(c1cc(COc2ccc3ncccc3c2)on1)N1CCCCCC1`, the AC50 was 0.703 µM.

`O=C(/C=C1\C(=O)Nc2ccccc21)/C=C1\C(=O)Nc2ccccc21`: the AC50 was 9.5 µM.

`Cc1cccc(C)c1-n1nnnc1C(c1cc2ccccc2o1)N1CCC(n2c(=O)[nH]c3ccccc32)CC1` (stereo not given): the half-maximal activity concentration (AC50) was 3.05 µM.

Regarding `CCN(c1ccccc1)S(=O)(=O)c1ccc(NC(=O)c2nc(S(C)(=O)=O)ncc2Cl)cc1`, the AC50 was 0.562 µM.

As for `Cc1ccnc(SCC(=O)Nc2sc3c(c2C#N)CCCC3)n1`, the AC50 is 0.955 µM.

Consider `COc1cccc(N2CCN(c3ncnc4c3[nH]c3ccc(F)cc34)CC2C)c1` (stereo not given), for which the half-maximal activity concentration (AC50) is 1.31 µM.

With `CCCCOc1ccc(Br)cc1CSC(=N)N`, the AC50 was 1.37 µM.

For the compound `COc1ccc(-n2ncc(Cl)c(Cl)c2=O)cc1`, the AC50 was 3.36 µM.

As for `Cc1ccc(S(=O)(=O)CC2CSc3nc4ccccc4n32)cc1` (stereo not given), the AC50 is 0.347 µM.

With `CC(=O)Nc1cccc(NC(=O)CSc2ncc(-c3ccc(Cl)cc3)n2Cc2ccco2)c1`, the AC50 is 4.95 µM.

Take `CC(C)(C)[C@@H]1COC(=O)[C@@H](NC(=O)OCC2c3ccccc3-c3ccccc32)C/C=C\C[C@@H](CC(=O)NCCO)C(=O)N1`: the AC50 is 22.1 µM.

For `O=[N+]([O-])c1ccc(O)c(-c2cc(C(F)(F)F)nc(-c3ccccc3)n2)c1`, the AC50 is 2.73 µM.

On to `COc1ccc(CC2(CO)CCN(CC3=Cc4cc(Cl)ccc4OC3)CC2)cc1`, for which the AC50 is 1.33 µM.

Take `COc1ccccc1NC(=O)Cc1nn(C)c(=O)c2ccccc12`: the AC50 is 1.97 µM.

On to `CC(=O)NC(c1ccc(Cl)cc1Cl)c1ccc2cccnc2c1O` (stereo not given), for which the AC50 is 0.465 µM.

Consider `CCc1ccc(CNC(=O)c2cc3c(C)nc4ccccc4c3o2)cc1`, for which the AC50 was 2.02 µM.

Take `Cc1cc([N+](=O)[O-])ccc1-c1ccc(C2Nc3ccccc3C(=O)N2O)o1` (stereo not given): the AC50 is 3.32 µM.

Consider `Cc1ccc(C(=O)Nc2cnc3ccccc3c2)cc1`, for which the AC50 was 4.04 µM.

With `CC(N)C(=O)NC1C2C(=C(O)CC(O)C2O)C(=O)OC1(C)C(Cl)Cl` (stereo not given), the AC50 was 1.85 µM.

Consider `CC1CCC2C(=O)N(c3ccc(Cc4ccncc4)cc3)C(=O)C2C1` (stereo not given), for which the AC50 is 2.65 µM.

Regarding `CCCCn1c(CN(C)Cc2ccccc2)nc2c1c(=O)n(C)c(=O)n2C`, the AC50 was 2.38 µM.

Turning to `Oc1c(CN2CCCCC2)cc(COCc2ccccc2)c2cccnc12`, the AC50 is 0.537 µM.

As for `CCCc1ccc(C(=O)NNc2cc(Cl)ccc2Cl)cc1`, the AC50 is 2.59 µM.

With `O=C(Nc1ccc(Br)cc1)c1ccc(F)c(S(=O)(=O)NCc2cccs2)c1`, the AC50 is 3.05 µM.

Take `CC(Nc1ncnc2sccc12)c1ccccc1` (stereo not given): the AC50 is 0.505 µM.

For `Cc1ccc(C)c(N2CCN(S(=O)(=O)c3ccc4[nH]c(=O)ccc4c3)CC2)c1`, the AC50 was 24.2 µM.

With `CCCOc1ccccc1C1CC(=O)Nc2cc3c(cc21)OCO3` (stereo not given), the AC50 was 5.72 µM.

As for `CN(C)c1ccc(C=Cc2ccnc3c(O)cccc23)cc1`, the AC50 is 1.43 µM.

In the case of `FC(F)(F)c1cccc(NC(=S)NC(c2ccccc2)c2ccccc2)c1`, the AC50 was 7.17 µM.

With `c1ccc(Nc2nc(NCC3CCCO3)c3ccccc3n2)cc1` (stereo not given), the AC50 is 21.7 µM.
